Like-named read-outs stand apart in the source and are kept apart here.
Legend:
[1] = target: T1, cathepsin G (Homo sapiens, UniProt P08311); experiment: Cathepsin G mediated degradation of 35S-labeled cartilage matrix proteoglycan (CPG); format: biochemical; conditions: cartilage discs, 4 hours at 37° C., FIG. 4
T1 construct: Both purified human neutrophil elastase and cathepsin G degrade CPG; from tissue; host or cells: human neutrophils
T1 sequence (P08311 21-244 limits assumed): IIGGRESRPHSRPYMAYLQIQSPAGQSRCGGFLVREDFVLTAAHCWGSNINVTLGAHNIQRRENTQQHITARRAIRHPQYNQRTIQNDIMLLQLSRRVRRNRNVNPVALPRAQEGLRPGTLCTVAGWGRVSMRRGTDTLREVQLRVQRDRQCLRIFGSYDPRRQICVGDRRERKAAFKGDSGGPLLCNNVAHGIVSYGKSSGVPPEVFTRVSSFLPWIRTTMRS
Experimental: (§1) Fresh bovine nasal septa were obtained from a local abattoir and 4 mm cartilage cylinders were prepared using a No. 2 cork borer. The cylinders were sliced into 1 mm discs. The top and bottom discs were discarded and the remaining cartilage discs were pooled, washed three times in HBSS and resuspended in Dulbecco's Modified Eagles Medium (DMEM) with antibiotics and supplements. The sulfated sugars that constitute the glycosaminoglycan side chains of cartilage proteoglycan were radiolabeled by the addition of 10 μCi/ml of Na2^35 SO4 followed by incubation overnight at 37° C. with gentle rocking. […]
(§2) The ability of neutrophil proteases to degrade connective tissue matrix was measured by incubating ^35 S-radiolabeled cartilage discs with neutrophil lysate, purified elastase or cathepsin G in serumless media for 4 hours at 37° C. and collecting the supernatants and counting the radiolabeled material in the supernatants and discs. The radioactivity remaining in the cartilage discs after removal of the supernatant was assayed by completely digesting the discs in 6M HCl at 100° C. for 1 hour, removing the HCl by vacuum evaporation and resuspending the dried material in 0.5 ml HBSS. Supernatants and processed discs were counted in a Beckman LS 3801 scintillation counter. The data were expressed as the percent at ^35 S label released into the supernatant. […]

[2] = target: T2, purified human neutrophil elastase (Homo sapiens, UniProt P08246); experiment: Elastase mediated degradation of 35S-labeled cartilage matrix proteoglycan (CPG); format: biochemical; conditions: cartilage discs, 4 hours at 37° C., FIG. 3
T2 construct: Both purified human neutrophil elastase and cathepsin G degrade CPG; from tissue; host or cells: human neutrophils
T2 sequence (P08246 30-247 limits assumed): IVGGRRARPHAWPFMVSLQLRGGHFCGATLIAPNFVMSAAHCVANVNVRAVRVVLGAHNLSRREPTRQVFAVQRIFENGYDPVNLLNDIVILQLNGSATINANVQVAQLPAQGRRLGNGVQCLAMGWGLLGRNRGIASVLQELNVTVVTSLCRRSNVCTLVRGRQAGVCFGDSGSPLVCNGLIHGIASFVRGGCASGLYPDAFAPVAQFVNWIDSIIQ
Experimental: as §1, §2

[3] = target: T3, elastase (Homo sapiens, UniProt P08246); experiment: Elastase cleavage of synthetic substrate N-methoxysuccinyl-Ala-Ala-Pro-Val-p-nitroanalide; format: biochemical; conditions: 2 μg of elastase, FIG. 1, read-out: IC50 for the inhibition of elastase
T3 sequence (P08246 30-247 limits assumed): T2 sequence (P08246 30-247 limits assumed)
Experimental: (§3) Elastase activity is assayed using the specific substrate, N-methoxysuccinyl-Ala-Ala-Pro-Val-p-nitroanalide, and cathepsin G activity was measured using N-succinyl-Ala-Pro-Phe-p-nitroanalide. The assay buffer, 0.1M HEPES with 0.5M NaCl and 0.1% Brij-35, is used to dilute the elastase substrate to a final concentration of 0.2 mM and the cathepsin G substrate to 1 mM. The appropriate substrate in 2 ml of assay buffer is incubated at 37° C. in a heated spectrophotometer cell and the reaction is started by the addition of enzyme. In experiments where inhibitors were tested, the inhibitors were incubated with the enzyme for 5 min before the addition of substrate. […] was continuously monitored at 410 nm using a diode array spectrophotometer. Kinetic constants were determined using the kinetics software of the spectrophotometer.
(§4) The ability of several sulfated polymers to inhibit elastase and cathepsin G degradation of their respective substrates was examined. MDL-101,028, a compound falling within the scope of the claimed invention, where the value of n is 6, and 4,4'-Diisothiocyanatostilbene-2,2'-disulfonic acid, internally identified as MDL-101,114 (DIDS) inhibited both elastase and cathepsin G in a dose-dependent manner.

[4] = target: T1, cathepsin G; experiment: Cathepsin G cleavage of synthetic substrate N-succinyl-Ala-Pro-Phe-p-nitroanalide; format: biochemical; conditions: 2 micrograms of cathepsin G, FIG. 2, read-out: IC50 for the inhibition of cathepsin G
Experimental: as §3, §4

[5] = test system: Human neutrophil lysate; experiment: Human neutrophil lysate mediated degradation of CPG; format: biochemical; conditions: lysate 1:100, 4 hour at 37° C., FIG. 5
Experimental: Human neutrophil granule lysates were prepared by resuspending 2.5×10^8 in 4 ml of […] sucrose and sonicating for 30 seconds using a microtip probe. […] The neutrophil lysate was centrifuged at 1000×g for 10 min. at 4° C., the supernatant was collected and centrifuged at 30,000×g for 30 min. at 4° C. and the pellet containing neutrophil granules was resuspended in 2 ml of 0.05M sodium acetate buffer, pH 5.5, containing 1M NaCl and 0.1% Brij-35 and kept on ice for 30 min. with several brief sonications of approximately 30 seconds during the incubation period. […] The granule lysate was centrifuged at 30,000×g for 30 min. at 4° C. and the supernatant was collected, tested for elastase and cathepsin G content using synthetic substrates as described above, aliquoted and stored at […] until used.
Fresh bovine nasal septa were obtained from a local abattoir and 4 mm cartilage cylinders were prepared using a No. 2 cork borer. The cylinders were sliced into 1 mm discs. The top and bottom discs were discarded and the remaining cartilage discs were pooled, washed three times in HBSS and resuspended in Dulbecco's Modified Eagles Medium (DMEM) with antibiotics and supplements. […]
as §2

[6] = test system: human neutrophil elastase; experiment: Elastase induced pulmonary hemorrhage in rats; format: in vivo, Male Sprague Dawley rats; conditions: rat; for Inhibition of lung hemorrhage (hemoglobin in lavage fluid): 100 μg elastase, FIG. 7; for Inhibition of lung hemorrhage: intratracheal, FIG. 8
Experimental: Male Sprague Dawley rats were anesthetized with chloral hydrate (300 mg/kg) and either saline or human neutrophil elastase was administered intratracheally. Briefly, rats were placed on a surgical board, ventral side up, and their mouths held open using a rubber band placed over their incisors. The tongue was held to the side and 100 micro liters of elastase solution (1 mg/ml) was administered into the trachea with the aid of a bright light source and a 3 inch, 22 gauge blunt-end needle. One hour after elastase administration, the rats were sacrificed using CO2 and the trachea was surgically exposed and cannulated. The lungs were lavaged with 10 ml of saline and the hemoglobin content was-determined using the cyanmethemoglobin assay. In experiments where inhibitors were tested, the compounds were given intratracheally in 100 μl of saline at various times before elastase administration.
Intratracheal instillation of human leukocyte elastase produced acute lung injury as assessed by hemorrhage (FIG. 7). The hemorrhage was quantified by measuring the hemoglobin content of the pulmonary lavage fluid. […] When MDL-101,028 was administered intratracheally immediately before elastase (within 30 seconds) at doses of 280 μg, 700 μg, or 2800 μg, lung hemorrhage was inhibited by 48%, 90%, and 90% respectively (FIG. 7).
MDL-101,028 was administered to rats at various time intervals before instillation of elastase to determine the duration of action.

[7] = test system: Human neutrophils; experiment: Primary granule enzyme secretion (myeloperoxidase release) from neutrophils; format: cell-based; conditions: stimulated neutrophils
Experimental: (§5) Radiolabeled cartilage discs were placed into the wells of 96-well microtiter plates and overlayed with human neutrophils suspended in DMEM containing 10% FCS. The neutrophils were stimulated by the addition of 1 mg/ml of opsonized zymosan and incubated for 4 hours at 37° C. with 5% CO2. Connective tissue matrix degradation was quantitated by the amount of radiolabel released. In experiments using protease inhibitors, the inhibitors were added immediately after the neutrophils. The viability of the neutrophils incubated with the protease inhibitors was determined by assaying the supernatants for lactic dehydrogenase (LDH) and by neutrophil exclusion of trypan blue. In addition, the effect of protease inhibitors on primary granule enzyme secretion was monitored by measuring the release of myeloperoxidase.
(§6) The percentage of neutrophils stimulated with zymosan in media for 4 hours that excluded trypan blue was 85% compared to 77%-87% for neutrophils incubated with MDL-101,028 at doses of 4, 10, and 25 μM, respectively. This correlated with LDH release which was 9% for stimulated neutrophils treated with media, compared to 7-11% for neutrophils incubated with MDL-101,028 at concentrations of 4-25 μM.

[8] = test system: Human neutrophils; experiment: Neutrophil viability (trypan blue exclusion, lactic dehydrogenase release); format: cell-based
Experimental: as §5, §6

Compound	IC50 ([1]; read-out: IC50, cathepsin G mediated cartilage degradation) [µM]	IC50 ([2]; read-out: IC50, elastase mediated cartilage degradation) [µM]	IC50 [3] [µM]	IC50 [4] [µM]	IC50 ([1]; read-out: IC50, cathepsin G mediated CPG degradation) [µM]	Inhibition of CPG degradation by neutrophil lysate ([5]; 4 μmolar) [%]	Inhibition of CPG degradation by neutrophil lysate ([5]; 10 μmolar) [%]	Inhibition of CPG degradation by neutrophil lysate ([5]; 25 μmolar) [%]	IC50 ([2]; read-out: IC50, elastase mediated CPG degradation) [µM]	Inhibition of lung hemorrhage (hemoglobin in lavage fluid) ([6]; 280 μg intratracheally immediately before elastase (within 30 seconds)) [%]	Inhibition of lung hemorrhage (hemoglobin in lavage fluid) ([6]; 700 μg intratracheally immediately before elastase (within 30 seconds)) [%]	Inhibition of lung hemorrhage (hemoglobin in lavage fluid) ([6]; 2800 μg intratracheally immediately before elastase (within 30 seconds)) [%]	Inhibition of lung hemorrhage ([6]; administered 1 hour before elastase) [%]	Inhibition of lung hemorrhage ([6]; administered 2 hours before elastase) [%]	Inhibition of lung hemorrhage ([6]; administered 4 hours before elastase) [%]	Duration of action ([6]; intratracheal route)	Myeloperoxidase release from neutrophils [7]	LDH release ([8]; concentrations of 4-25 μM, stimulated neutrophils (media control 9%), 240 min)	Percentage of neutrophils that excluded trypan blue ([8]; doses of 4, 10, and 25 μM, zymosan stimulated, 4 hours (media control 85%))	Viability of the neutrophils ([8]; trypan blue exclusion and lactic dehydrogenase release)
O=S(=O)(O)c1cc(N=C=S)ccc1C=Cc1ccc(N=C=S)cc1S(=O)(=O)O [DIDS, 4,4'-Diisothiocyanatostilbene-2,2'-disulfonic acid, reference compound]	50	38	1.1	1.4																
Cc1ccc(NC(=O)Nc2ccc(-c3ccc(NC(=O)Nc4ccc(-c5ccc(NC(=O)Nc6ccc(-c7ccc(NC(=O)Nc8ccc(-c9ccc(NC(=O)Nc%10ccc(-c%11ccc(NC(=O)Nc%12ccc(-c%13ccc(NC(=O)Nc%14ccc(C)cc%14)cc%13S(=O)(=O)O)c(S(=O)(=O)O)c%12)cc%11S(=O)(=O)O)c(S(=O)(=O)O)c%10)cc9S(=O)(=O)O)c(S(=O)(=O)O)c8)cc7S(=O)(=O)O)c(S(=O)(=O)O)c6)cc5S(=O)(=O)O)c(S(=O)(=O)O)c4)cc3S(=O)(=O)O)c(S(=O)(=O)O)c2)cc1 [MDL-101,028]			0.04	0.08	~9	54	70	79	~8	48	90	90	61	63	20	greater than two hours and less than four hours	not inhibited	7-11%	77%-87%	not diminished

Source: patent US5384119A, “Method of preventing neutrophil mediated connective tissue damage” (Merrell Dow Pharmaceuticals Inc., priority 1993, dated 1995)
